The text below walks through data of ChEMBL document CHEMBL1212755, “Factors influencing pharmacokinetics of prophylactic posaconazole in patients undergoing allogeneic stem cell transplantation” (Antimicrob Agents Chemother, 2010).

Common to all, as to assay type: ADME, organism-based
The nature of data set [1]: Apparent volume of distribution in patient with diarrhea undergoing allogenic hematopoietic stem cell transplantation. The settings on record: human, in vivo; read-out: Vc/F.
Data set [2] in a line: Cmax in patient undergoing allogenic hematopoietic stem cell transplantation. The settings on record: human, in vivo.
A short description of data set [3]: Apparent oral clearance in patient without diarrhea undergoing allogenic hematopoietic stem cell transplantation. The settings on record: human, in vivo.
Data set [4] can be described thus: Apparent volume of distribution in patient undergoing allogenic hematopoietic stem cell transplantation. The settings on record: human, in vivo; read-out: Vc/F.
The nature of data set [5]: Apparent oral clearance in patient undergoing allogenic hematopoietic stem cell transplantation. The settings on record: human, in vivo.
Data set [6] is described as follows: Apparent volume of distribution in patient without diarrhea undergoing allogenic hematopoietic stem cell transplantation. Conditions: human, in vivo; read-out: Vc/F.
The nature of data set [7]: Apparent oral clearance in patient with diarrhea undergoing allogenic hematopoietic stem cell transplantation. Conditions: human, in vivo.
Another data set is filed under the species Homo sapiens. Kind of data set: Drug level in patient undergoing allogenic hematopoietic stem cell transplantation. Conditions: in vivo.

What is called Cmax is the maximum level reached in the sampled fluid or tissue. Broadly, the CL/F is the apparent clearance, not corrected for the fraction that reaches the circulation.

As to `CC[C@@H]([C@H](C)O)n1ncn(-c2ccc(N3CCN(c4ccc(OC[C@@H]5CO[C@@](Cn6cncn6)(c6ccc(F)cc6F)C5)cc4)CC3)cc2)c1=O` [POSACONAZOLE], the Vd/F in data set [1] was 3800 L; in data set [4] it was 835 L; in data set [6], 2250 L. The same molecule registered a Cmax in data set [2] of 654 ng/mL. The CL/F is 1120 mL/min in data set [3], 1260 mL/min in data set [5] and 1890 mL/min in data set [7]. The molecule also displayed a Drug uptake in the data set filed under Homo sapiens of 411 µg/L.
